Measurements reported in patent publication US7319089B2, “Maurocalcine, analogues thereof and their therapeutical uses” (priority 2000, dated 2008).
Values joined by “and” are separate entries in the source; they are usually repeats but may differ in a detail not shown here. Identical values can stand only once. “Also recorded” adds a separate entry of the source. Positions of bridges follow the written chain, without caps; N, C: chain ends. Residues, ends and D or L forms follow the SMILES beside them.

What was measured:
[1] = biological target: T1, type 1 ryanodine receptor (RyR1) (Homo sapiens, UniProt P21817); assay type: biochemical; parameters: sMCa-modified channels blocked by ruthenium red: dose or concentration left out as unconfirmed; details: for reversibility of the induced subconductance states on perfusion of the cis chamber: channel modified by sMCa and ryanodine, trace 5
T1 construct: from tissue; host or cells: sarcoplasmic reticulum (SR) vesicles
Protocol: Single-channel recording: Cs^+ current through single RyR1 channels incorporated into planar lipid bilayers (BLM) was measured in an asymmetric CsCl (10:1 cis:trans) solution. The BLM was formed from a mixture of phosphatidylethanolamine and phosphatidylcholine (5:2, w/w) at 30-50 mg/ml in decane, across a […] aperture in a 1.0 ml polystyrene cup. SR vesicles were added to the cis side of chamber at a final concentration of 0.1-10 mg/ml. The cis solution contained 500 mM CsCl, ˜7 mM CaCl2, 20 mM HEPES, pH 7.4, and the trans solution contained 50 mM CsCl, 7 mM free Ca^2+, 20 mM HEPES, pH 7.4. The monovalent cation Cs^+ was used as permeant ion instead of divalent cations (such as Ca^2+) owing to its better permeability through RyR1. After a single fusion event, sarcoplasmic reticulum (SR) vesicles in cis chamber were quickly removed by perfusion with 9× volume of is solution. Single-channel current was measured under voltage clamp using a Dagan 3900 amplifier (Dagan Instruments, Minneapolis, Minn.). Holding potentials were with respect to the trans (ground) chamber, and positive current was defined as current flowing from cis to trans. Current signals were captured at 10 kHz and filtered at 1 kHz using a four pole Bessel filter. Data was digitized with a Digidata 1200 interface (Axon Instruments, Burlingame, Calif.) and stored on computer for subsequent analysis. Unless otherwise stated, test chemicals were sequentially added to the cis solution after an initial period of recording control channel behaviour. Single channel activity was analyzed with pCLAMP 7.0 (Axon Instruments). Current levels were analyzed by mean-variance analysis and peaks in the all-points amplitude histogram were fitted with Gaussian functions. The all-points amplitude histograms were constructed from selected segments-of data 20-150 sec in length to quantify the incidence of full and subconductance states.
To test this hypothesis, we performed electrophysiological experiments on single RyR1 channels incorporated into planar lipid bilayers.

mice = assay: Lethality after intracerebroventricular injection in mice
[2] = biological target: T1, type 1 ryanodine receptor (RyR1); details: comparison with sMCa; cited from earlier work
[3] = sMCa and ryanodine (1 μM) both present

T1 sequence (P21817 whole entry, species assumed, the tested form may be a part): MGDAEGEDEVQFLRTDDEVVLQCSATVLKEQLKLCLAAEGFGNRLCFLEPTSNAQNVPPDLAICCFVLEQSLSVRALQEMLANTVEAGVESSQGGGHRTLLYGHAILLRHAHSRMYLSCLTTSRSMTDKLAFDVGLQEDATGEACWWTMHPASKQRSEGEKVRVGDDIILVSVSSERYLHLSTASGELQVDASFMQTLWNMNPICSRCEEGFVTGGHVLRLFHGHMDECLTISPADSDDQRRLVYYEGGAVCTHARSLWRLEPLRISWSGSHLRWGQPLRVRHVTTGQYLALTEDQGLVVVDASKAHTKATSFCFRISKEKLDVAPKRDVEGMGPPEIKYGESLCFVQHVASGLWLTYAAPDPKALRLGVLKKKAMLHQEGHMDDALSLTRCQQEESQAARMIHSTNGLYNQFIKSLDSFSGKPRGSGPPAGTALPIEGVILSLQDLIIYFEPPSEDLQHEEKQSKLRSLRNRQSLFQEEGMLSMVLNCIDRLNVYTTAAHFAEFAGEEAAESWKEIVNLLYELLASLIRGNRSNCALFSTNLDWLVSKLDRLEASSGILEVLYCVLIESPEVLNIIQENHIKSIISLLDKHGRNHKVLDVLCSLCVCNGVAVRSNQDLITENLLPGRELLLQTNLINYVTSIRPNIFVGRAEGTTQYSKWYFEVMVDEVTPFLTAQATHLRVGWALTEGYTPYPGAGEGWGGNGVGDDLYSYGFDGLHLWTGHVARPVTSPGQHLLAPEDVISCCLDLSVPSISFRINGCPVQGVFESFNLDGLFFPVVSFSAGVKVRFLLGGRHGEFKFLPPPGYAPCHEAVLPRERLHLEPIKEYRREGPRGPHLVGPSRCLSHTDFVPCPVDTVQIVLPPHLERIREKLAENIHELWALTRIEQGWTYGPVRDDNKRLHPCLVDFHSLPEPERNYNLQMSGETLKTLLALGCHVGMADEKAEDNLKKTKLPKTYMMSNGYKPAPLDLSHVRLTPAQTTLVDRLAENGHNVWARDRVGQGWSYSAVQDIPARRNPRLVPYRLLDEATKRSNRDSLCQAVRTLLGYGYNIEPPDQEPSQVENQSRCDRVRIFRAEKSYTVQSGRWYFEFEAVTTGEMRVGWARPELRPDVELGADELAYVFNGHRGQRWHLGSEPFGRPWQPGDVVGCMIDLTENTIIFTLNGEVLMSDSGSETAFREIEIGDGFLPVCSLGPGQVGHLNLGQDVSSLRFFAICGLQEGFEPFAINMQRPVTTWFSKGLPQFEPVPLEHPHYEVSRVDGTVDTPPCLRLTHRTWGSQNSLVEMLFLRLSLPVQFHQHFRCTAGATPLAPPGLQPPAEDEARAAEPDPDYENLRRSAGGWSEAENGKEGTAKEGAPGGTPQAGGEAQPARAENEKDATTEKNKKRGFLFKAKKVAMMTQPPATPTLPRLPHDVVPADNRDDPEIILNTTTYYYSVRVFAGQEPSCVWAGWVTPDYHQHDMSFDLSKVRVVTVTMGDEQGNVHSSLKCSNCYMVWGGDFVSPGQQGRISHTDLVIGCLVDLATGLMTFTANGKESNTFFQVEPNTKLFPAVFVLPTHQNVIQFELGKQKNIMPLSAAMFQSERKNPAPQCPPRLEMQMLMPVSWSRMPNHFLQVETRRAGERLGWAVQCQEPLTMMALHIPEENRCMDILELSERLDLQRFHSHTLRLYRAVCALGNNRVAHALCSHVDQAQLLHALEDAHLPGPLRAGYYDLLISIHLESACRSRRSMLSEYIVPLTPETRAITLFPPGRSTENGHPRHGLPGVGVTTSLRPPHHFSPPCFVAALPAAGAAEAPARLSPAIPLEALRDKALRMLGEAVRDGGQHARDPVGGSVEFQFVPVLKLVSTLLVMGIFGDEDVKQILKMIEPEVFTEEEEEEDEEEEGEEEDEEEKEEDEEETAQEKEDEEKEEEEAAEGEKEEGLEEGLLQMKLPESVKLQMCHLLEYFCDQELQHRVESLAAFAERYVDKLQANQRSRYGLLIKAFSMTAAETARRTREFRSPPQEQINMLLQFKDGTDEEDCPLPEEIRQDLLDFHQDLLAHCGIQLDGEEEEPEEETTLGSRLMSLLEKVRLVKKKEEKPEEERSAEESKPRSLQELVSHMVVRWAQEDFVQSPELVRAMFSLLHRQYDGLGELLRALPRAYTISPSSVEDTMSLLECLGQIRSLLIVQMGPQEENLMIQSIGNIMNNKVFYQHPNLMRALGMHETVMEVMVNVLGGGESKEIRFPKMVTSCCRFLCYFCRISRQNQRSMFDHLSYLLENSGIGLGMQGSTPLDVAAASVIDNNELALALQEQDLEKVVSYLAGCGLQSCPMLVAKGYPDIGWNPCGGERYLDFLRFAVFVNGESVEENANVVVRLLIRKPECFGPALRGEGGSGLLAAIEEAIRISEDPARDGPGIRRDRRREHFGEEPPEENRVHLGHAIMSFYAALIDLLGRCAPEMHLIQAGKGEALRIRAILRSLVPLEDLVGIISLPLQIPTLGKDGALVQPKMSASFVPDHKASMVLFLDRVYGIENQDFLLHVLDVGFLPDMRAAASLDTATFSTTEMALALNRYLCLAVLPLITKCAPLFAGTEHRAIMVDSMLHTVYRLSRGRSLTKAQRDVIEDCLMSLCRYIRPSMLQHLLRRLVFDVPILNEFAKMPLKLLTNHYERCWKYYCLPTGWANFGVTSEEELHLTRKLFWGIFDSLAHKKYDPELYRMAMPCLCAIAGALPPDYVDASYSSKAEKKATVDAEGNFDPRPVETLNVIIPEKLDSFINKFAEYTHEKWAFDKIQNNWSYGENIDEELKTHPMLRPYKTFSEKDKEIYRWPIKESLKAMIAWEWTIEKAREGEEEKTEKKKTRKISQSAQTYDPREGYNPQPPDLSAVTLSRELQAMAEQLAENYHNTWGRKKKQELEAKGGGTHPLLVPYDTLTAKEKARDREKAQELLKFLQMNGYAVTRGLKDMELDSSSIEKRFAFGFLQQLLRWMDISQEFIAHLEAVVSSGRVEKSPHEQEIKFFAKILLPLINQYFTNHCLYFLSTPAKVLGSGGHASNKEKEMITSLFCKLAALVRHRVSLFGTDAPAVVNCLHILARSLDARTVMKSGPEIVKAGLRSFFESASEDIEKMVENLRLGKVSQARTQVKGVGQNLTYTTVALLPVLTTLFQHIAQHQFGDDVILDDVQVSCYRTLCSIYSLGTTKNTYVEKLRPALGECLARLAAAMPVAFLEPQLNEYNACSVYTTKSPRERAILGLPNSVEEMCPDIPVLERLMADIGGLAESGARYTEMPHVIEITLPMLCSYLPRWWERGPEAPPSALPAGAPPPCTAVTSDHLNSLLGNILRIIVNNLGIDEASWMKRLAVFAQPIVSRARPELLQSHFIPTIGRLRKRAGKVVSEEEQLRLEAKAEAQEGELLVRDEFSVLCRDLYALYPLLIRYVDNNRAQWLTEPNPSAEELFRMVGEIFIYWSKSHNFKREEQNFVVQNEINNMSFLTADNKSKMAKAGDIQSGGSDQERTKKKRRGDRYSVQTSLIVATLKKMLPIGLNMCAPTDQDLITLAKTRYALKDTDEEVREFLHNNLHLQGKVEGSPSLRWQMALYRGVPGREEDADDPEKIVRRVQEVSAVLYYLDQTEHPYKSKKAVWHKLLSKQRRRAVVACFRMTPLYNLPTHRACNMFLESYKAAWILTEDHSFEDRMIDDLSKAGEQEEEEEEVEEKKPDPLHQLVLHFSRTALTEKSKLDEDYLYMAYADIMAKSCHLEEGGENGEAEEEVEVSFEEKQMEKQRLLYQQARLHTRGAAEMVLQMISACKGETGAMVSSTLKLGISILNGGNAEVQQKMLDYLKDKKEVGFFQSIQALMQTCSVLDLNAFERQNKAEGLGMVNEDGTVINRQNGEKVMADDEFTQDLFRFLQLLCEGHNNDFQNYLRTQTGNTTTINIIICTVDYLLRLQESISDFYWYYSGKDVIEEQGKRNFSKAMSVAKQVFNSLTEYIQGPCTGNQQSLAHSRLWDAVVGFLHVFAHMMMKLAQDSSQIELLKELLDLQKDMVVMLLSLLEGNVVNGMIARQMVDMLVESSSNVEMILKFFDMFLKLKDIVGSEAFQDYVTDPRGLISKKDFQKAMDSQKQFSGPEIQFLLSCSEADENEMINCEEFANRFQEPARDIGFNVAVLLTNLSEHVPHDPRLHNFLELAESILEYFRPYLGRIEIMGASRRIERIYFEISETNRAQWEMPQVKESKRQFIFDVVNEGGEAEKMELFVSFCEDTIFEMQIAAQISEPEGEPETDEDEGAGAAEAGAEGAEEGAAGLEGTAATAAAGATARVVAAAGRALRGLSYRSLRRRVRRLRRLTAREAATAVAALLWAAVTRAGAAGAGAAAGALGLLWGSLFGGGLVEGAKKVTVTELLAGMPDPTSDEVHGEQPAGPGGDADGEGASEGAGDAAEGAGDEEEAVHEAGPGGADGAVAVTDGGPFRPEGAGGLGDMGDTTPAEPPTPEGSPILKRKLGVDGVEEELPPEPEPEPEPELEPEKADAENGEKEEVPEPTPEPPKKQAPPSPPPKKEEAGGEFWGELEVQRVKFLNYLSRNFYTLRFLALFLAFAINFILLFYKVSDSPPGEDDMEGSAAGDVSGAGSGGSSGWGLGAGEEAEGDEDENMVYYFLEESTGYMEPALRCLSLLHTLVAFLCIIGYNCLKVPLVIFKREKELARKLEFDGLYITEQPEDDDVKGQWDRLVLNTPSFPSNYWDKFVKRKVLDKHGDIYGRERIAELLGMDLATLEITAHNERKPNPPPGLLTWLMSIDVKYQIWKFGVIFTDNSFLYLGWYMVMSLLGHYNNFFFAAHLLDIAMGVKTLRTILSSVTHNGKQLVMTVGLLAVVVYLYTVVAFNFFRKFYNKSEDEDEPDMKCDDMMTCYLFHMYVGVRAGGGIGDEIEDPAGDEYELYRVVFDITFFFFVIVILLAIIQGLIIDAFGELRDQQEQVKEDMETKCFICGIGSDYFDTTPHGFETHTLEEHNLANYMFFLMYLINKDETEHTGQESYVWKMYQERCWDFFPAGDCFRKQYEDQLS

N.N.N.N.N.N.N.N.N.N.N.N.N.N.[Cl-].[Cl-].[Cl-].[Cl-].[Cl-].[Cl-].[O-2].[O-2].[Ru+3].[Ru+3].[Ru+4] [ruthenium red, reference compound]
block of the ryanodine/sMCa modified channel [1]: completely blocked | sMCa-modified channels blocked by ruthenium red ([1]; ruthenium red): Five out of six channels

CC[C@H](C)[C@@H]1NC(=O)[C@H](CC(N)=O)NC(=O)[C@H]([C@@H](C)O)NC(=O)CNC(=O)[C@H](CCCNC(=N)N)NC(=O)[C@H](CCCNC(=N)N)NC(=O)[C@H](CCCCN)NC(=O)[C@@H]2CSSC[C@@H]3NC(=O)[C@H](CC(C)C)NC(=O)[C@H](CCCCN)NC(=O)[C@H](CC(C)C)NC(=O)[C@H](Cc4c[nH]cn4)NC(=O)[C@@H]4CCCN4C(=O)[C@H](CC(C)C)NC(=O)[C@@H](NC(=O)[C@H](CC(=O)O)NC(=O)CN)CSSC[C@H](NC(=O)[C@H](CSSC[C@@H](C(=O)N[C@@H](CCCNC(=N)N)C(=O)O)NC(=O)[C@H](CCCNC(=N)N)NC(=O)[C@H](CCCCN)NC(=O)[C@H](CCC(=O)O)NC1=O)NC(=O)[C@H](CC(=O)O)NC(=O)[C@H](CCCCN)NC(=O)[C@H](CC(N)=O)NC(=O)[C@H](CCC(=O)O)NC(=O)[C@H](CCCCN)NC3=O)C(=O)N[C@@H](CO)C(=O)N[C@@H](CCCCN)C(=O)N[C@@H](CCCCN)C(=O)N2 [sMCa, maurocalcine] (H-GDCLPHLKLCKENKDCCSKKCKRRGTNIEKRCR-OH; disulfide 3-17, 10-21, 16-32)
LD50 (mice): 20 μg per mouse | reversibility of the induced subconductance states on perfusion of the cis chamber [1]: reversed the sMCa-induced quarter states | effect on RyR1 channel gating, toxin applied on the cis (cytoplasmic) side ([1]; nanomolar concentration (5 nM to 1 μM), cis chamber): dramatically modified the channel gating behavior; also recorded: potently and reversibly modifies channel gating behaviour; also recorded: potently activates RyR1 channels | minor subconductance induced, fraction of the full conductance level ([1]; sMCa alone, cis, to a smaller extent): one-quarter | predominant subconductance induced, fraction of the characteristic full conductance ([1]; sMCa alone, cis, traces 1-3): one-half | half subconductance, % of the characteristic control conductance level [1, 3]: ~50.5% and 51% | quarter subconductance, % of the characteristic control conductance level [1, 3]: ~29.3% and 29% | effect on RyR1, toxin applied on the trans (luminal) side ([1]; trans side): No effect

Imperatoxin A (GDCLPHLKRCKADNDCCGKKCKRRGTNAEKRCR; UniProt P59868 1-33, looked up) [IpTx A]
conductance state of RyR1 favoured [2]: ⅓

ryanodine [reference compound]
reversibility of the induced subconductance states on perfusion of the cis chamber [1]: ryanodine-mediated half-states persisted | sMCa-modified channels subsequently modified by ryanodine ([1]; ryanodine 1 μM): Four out of five channels
